Experimental data published in the supplement of paper PMC11061612.

Key:
[1] = compound: Cc1c2c(nn1C)CSCc1cc(n(C)n1)CSc1cc(c3ccccc3c1)OCCCc1c(C(=O)O)n(C)c3c-2c(Cl)ccc13 [AZD5991]; conditions: max 1 µM
Outline: (§1)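 Cancer cell lines in 1536-well plates (7.5 μl DMEM/F12 or RPMI, 10% FBS) were held 24 hours at 37°C and 5% CO2 and then dosed for 72 hours at a final DMSO of typically 0.2%. Viability was taken from CellTiter-Glo 2.0 luminescence, scaled between blank-well and DMSO-well means. Curves were fitted as two-parameter logistic models with a non-linear mixed effects model, from which the single-agent IC50 was taken.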

[2] = compound: CC(=O)c1c(C)c2cnc(Nc3ccc(N4CCNCC4)cn3)nc2n(C2CCCC2)c1=O [Palbociclib]; conditions: max 10 µM
Outline: as §1

[3] = compound: C[C@@H](Nc1cc(F)cc(F)c1)c1cc(C(=O)N(C)C)cc2c(=O)cc(N3CCOCC3)oc12 [AZD8186]; conditions: max 10 µM
Outline: as §1

[4] = compound: COc1cccc2c1C(=O)c1c(O)c3c(c(O)c1C2=O)C[C@@](O)(C(=O)CO)C[C@@H]3O[C@H]1C[C@H](N)[C@H](O)[C@H](C)O1 [Doxorubicin]; conditions: max 1 µM
Outline: as §1

[5] = compound: C[C@@H]1COCCN1C2=NC(=NC(=C2)C3(CC3)[S@](=N)(=O)C)C4=C5C=CNC5=NC=C4 [AZD6738]; conditions: max 10 µM
Outline: as §1

[6] = compound: O=C(Nc1ccc2[nH]nc(-c3ccncc3)c2c1)[C@@H]1CCN(CC(=O)N2CCN(c3ccc(-c4ncccn4)cc3)CC2)C1; conditions: max 5 µM
Outline: as §1

[7] = compound: CC1=C(C(=CC=C1)Cl)NC(=O)C2=CN=C(S2)NC3=CC(=NC(=N3)C)N4CCN(CC4)CCO [Dasatinib]; conditions: max 2 µM
Outline: as §1

[8] = compound: Nc1ccn([C@@H]2O[C@H](CO)[C@@H](O)C2(F)F)c(=O)n1 [Gemcitabine]; conditions: max 0.3 µM
Outline: as §1

[9] = compound: O=C(c1cc(Cc2n[nH]c(=O)c3ccccc23)ccc1F)N1CCN(C(=O)C2CC2)CC1 [Olaparib]; conditions: max 10 µM
Outline: as §1

[10] = compound: COc1cc2ncnc(Nc3ccc(F)c(Cl)c3)c2cc1OCCCN1CCOCC1 [Gefitinib]; conditions: max 10 µM
Outline: as §1

[11] = compound: C[C@@H](Oc1cc(-c2cnn(C3CCNCC3)c2)cnc1N)c1c(Cl)ccc(F)c1Cl [Crizotinib]; conditions: max 10 µM
Outline: as §1

[12] = compound: CC1=CN2[C@@H](C1)C=NC3=CC(=C(C=C3C2=O)OC)OCCCCCOC4=C(C=C5C(=C4)N=C[C@@H]6CC(=CN6C5=O)C)OC [SG3199]; conditions: max 0.001 µM
Outline: as §1

[13] = compound: COc1cccc(OCCCN)c1-c1cc(Nc2cnc(C#N)cn2)n[nH]1 [Prexasertib]; conditions: max 1 µM
Outline: as §1

[14] = compound: NC1(c2ccc(-c3nc4ccn5c(=O)[nH]nc5c4cc3-c3ccccc3)cc2)CCC1 [MK-2206]; conditions: max 10 µM
Outline: as §1

[15] = compound: COc1cc(Nc2ncc3c(n2)-c2ccc(Cl)cc2C(c2c(F)cccc2OC)=NC3)ccc1C(=O)O [Alisertib]; conditions: max 10 µM
Outline: as §1

[16] = compound: N#Cc1cnc(Nc2cc(NC[C@H]3CNCCO3)c(C(F)(F)F)cn2)cn1 [SRA737]; conditions: max 10 µM
Outline: as §1

[17] = compound: CS(=O)(=O)CCNCc1ccc(-c2ccc3ncnc(Nc4ccc(OCc5cccc(F)c5)c(Cl)c4)c3c2)o1 [Lapatinib]; conditions: max 10 µM
Outline: as §1

[18] = compound: CC1(C)CCC(CN2CCN(c3ccc(C(=O)NS(=O)(=O)c4ccc(NCC5CCOCC5)c([N+](=O)[O-])c4)c(Oc4cnc5[nH]ccc5c4)c3)CC2)=C(c2ccc(Cl)cc2)C1 [Venetoclax]; conditions: max 1 µM
Outline: as §1

[19] = compound: C=CCn1c(=O)c2cnc(Nc3ccc(N4CCN(C)CC4)cc3)nc2n1-c1cccc(C(C)(C)O)n1 [AZD1775]; conditions: max 3 µM
Outline: as §1

[20] = compound: CN(CC[C@H](CSC1=CC=CC=C1)NC2=C(C=C(C=C2)S(=O)(=O)NC(=O)C3=CC=C(C=C3)N4CCC(CC4)[C@H](C5=CC=CC=C5C6=CC=C(C=C6)Cl)O)S(=O)(=O)C(F)(F)F)CCO [AZD4320]; conditions: max 1 µM
Outline: as §1

[21] = compound: Cc1nc(-c2cn3c(n2)-c2ccc(-c4cnn(C(C)(C)C(N)=O)c4)cc2OCC3)n(C(C)C)n1 [Taselisib]; conditions: max 10 µM
Outline: as §1

[22] = compound: CCc1c2c(nc3ccc(O)cc13)-c1cc3c(c(=O)n1C2)COC(=O)[C@]3(O)CC [SN-38]; conditions: max 0.3 µM
Outline: as §1

[23] = compound: CN(C)CCCOc1ccc(-c2ccc3ncc4c(c3c2)n(C2CCOCC2)c(=O)n4C)cn1 [AZD0156]; conditions: max 3 µM
Outline: as §1

[24] = compound: O=c1[nH]cc(F)c(=O)[nH]1 [5-Fluorouracil]; conditions: max 20 µM
Outline: as §1

[25] = compound: COc1cc([C@@H]2c3cc4c(cc3[C@@H](O[C@@H]3O[C@@H]5CO[C@@H](C)O[C@H]5[C@H](O)[C@H]3O)[C@H]3COC(=O)[C@H]23)OCO4)cc(OC)c1O [Etoposide]; conditions: max 10 µM
Outline: as §1

[26] = compound: C[C@@H](c1ccc2nccn2c1)n1nnc2ncc(-c3cnn(C)c3)nc21 [Savolitinib]; conditions: max 1 µM
Outline: as §1

[27] = compound: CC(=O)Nc1cccc(-n2c(=O)n(C3CC3)c(=O)c3c(Nc4ccc(I)cc4F)n(C)c(=O)c(C)c32)c1 [Trametinib]; conditions: max 1 µM
Outline: as §1

[28] = compound: COc1nnc2ccc(N3CCC(c4ccc(OCCN5CCN(C)C(=O)[C@H]5C)cc4)CC3)nn12 [AZD5153]; conditions: max 1 µM
Outline: as §1

[29] = compound: Cn1cnc2c(F)c(Nc3ccc(Br)cc3Cl)c(C(=O)NOCCO)cc21 [Selumetinib]; conditions: max 10 µM
Outline: as §1

[30] = compound: CC(C)n1c(=O)n(C)c2cnc3cc(F)c(-c4ccc(OCCCN5CCCCC5)nc4)cc3c21 [AZD1390]; conditions: max 0.3 µM
Outline: as §1

[31] = compound: CCN(CCO)CCCOc1ccc2c(Nc3cc(CC(=O)Nc4cccc(F)c4)[nH]n3)ncnc2c1 [AZD2811]; conditions: max 1 µM
Outline: as §1

[32] = compound: C1CN(CCC1(C(=O)N[C@@H](CCO)C2=CC=C(C=C2)Cl)N)C3=NC=NC4=C3C=CN4 [AZD5363]; conditions: max 10 µM
Outline: as §1

[33] = compound: C1CC(C1)(C(=O)[O-])C(=O)[O-].N.N.[Pt+2] [Carboplatin]; conditions: max 10 µM
Outline: as §1

[34] = compound: Cc1cc2ncnn2cc1Nc1ncc2c(n1)n(C1CCOCC1)c(=O)n2C [AZD7648]; conditions: max 10 µM
Outline: as §1

[35] = compound: CC(=O)O[C@H]1C(=O)[C@@]2(C)[C@H]([C@H](OC(=O)c3ccccc3)[C@]3(O)C[C@H](OC(=O)[C@H](O)[C@@H](NC(=O)c4ccccc4)c4ccccc4)C(C)=C1C3(C)C)[C@]1(OC(C)=O)CO[C@@H]1C[C@@H]2O [Paclitaxel]; conditions: max 3 µM
Outline: as §1

Row | Cell Line | IC50, cell viability 72 h [1] | IC50, cell viability 72 h [2] | IC50, cell viability 72 h [3] | IC50, cell viability 72 h [4] | IC50, cell viability 72 h [5] | IC50, cell viability 72 h [6] | IC50, cell viability 72 h [7] | IC50, cell viability 72 h [8] | IC50, cell viability 72 h [9] | IC50, cell viability 72 h [10] | IC50, cell viability 72 h [11] | IC50, cell viability 72 h [12] | IC50, cell viability 72 h [13] | IC50, cell viability 72 h [14] | IC50, cell viability 72 h [15] | IC50, cell viability 72 h [16] | IC50, cell viability 72 h [17] | IC50, cell viability 72 h [18] | IC50, cell viability 72 h [19] | IC50, cell viability 72 h [20] | IC50, cell viability 72 h [21] | IC50, cell viability 72 h [22] | IC50, cell viability 72 h [23] | IC50, cell viability 72 h [24] | IC50, cell viability 72 h [25] | IC50, cell viability 72 h [26] | IC50, cell viability 72 h [27] | IC50, cell viability 72 h [28] | IC50, cell viability 72 h [29] | IC50, cell viability 72 h [30] | IC50, cell viability 72 h [31] | IC50, cell viability 72 h [32] | IC50, cell viability 72 h [33] | IC50, cell viability 72 h [34] | IC50, cell viability 72 h [35]
1 | OCUB-M (Breast Carcinoma) | 104 nM | > 10000 nM | > 10000 nM | 241 nM | > 10000 nM | > 5000 nM | > 2000 nM | 91.1 nM | > 10000 nM | > 10000 nM | > 10000 nM | > 1 nM | 463 nM | 1220 nM | 2810 nM | > 10000 nM | 4790 nM | > 1000 nM | > 3000 nM | 878 nM | 109 nM | 49.2 nM | > 3000 nM | > 20000 nM | 634 nM | > 1000 nM | > 1000 nM | > 1000 nM | > 10000 nM | > 300 nM | 73.4 nM | 429 nM | > 10000 nM | > 10000 nM | 9.26 nM
2 | OCUM-1 (Gastric Carcinoma) | > 1000 nM | > 10000 nM | > 10000 nM | > 1000 nM | 2950 nM | 35.9 nM | > 2000 nM | 110 nM | > 10000 nM | > 10000 nM | > 10000 nM | > 1 nM | 78.1 nM | > 10000 nM | > 10000 nM | > 10000 nM | > 10000 nM | > 1000 nM | 1510 nM | 571 nM | > 10000 nM | 48.6 nM | > 3000 nM | > 20000 nM | > 10000 nM | > 1000 nM | 1.85 nM | 645 nM | 63 nM | > 300 nM | > 1000 nM | 8900 nM | > 10000 nM | > 10000 nM | 2620 nM
3 | SCC-9 (Oral Cavity Carcinoma) | > 1000 nM | > 10000 nM | > 10000 nM | > 1000 nM | > 10000 nM | > 5000 nM | 1150 nM | > 300 nM | > 10000 nM | > 10000 nM | > 10000 nM | > 1 nM | > 1000 nM | > 10000 nM | > 10000 nM | > 10000 nM | 5060 nM | > 1000 nM | 2830 nM | > 1000 nM | 2140 nM | > 300 nM | > 3000 nM | > 20000 nM | > 10000 nM | > 1000 nM | > 1000 nM | > 1000 nM | > 10000 nM | > 300 nM | > 1000 nM | > 10000 nM | > 10000 nM | > 10000 nM | 284 nM
4 | SNU-C1 (Colorectal Carcinoma) | > 1000 nM | > 10000 nM | > 10000 nM | > 1000 nM | > 10000 nM | 802 nM | > 2000 nM | > 300 nM | > 10000 nM | > 10000 nM | > 10000 nM | > 1 nM | 73.5 nM | 9530 nM | > 10000 nM | > 10000 nM | > 10000 nM | > 1000 nM | > 3000 nM | > 1000 nM | 3360 nM | > 300 nM | > 3000 nM | > 20000 nM | > 10000 nM | > 1000 nM | 75.1 nM | > 1000 nM | 1260 nM | > 300 nM | > 1000 nM | > 10000 nM | > 10000 nM | > 10000 nM | > 3000 nM
5 | TGBC11TKB (Gastric Carcinoma) | > 1000 nM | > 10000 nM | > 10000 nM | > 1000 nM | 2020 nM | > 5000 nM | > 2000 nM | 45.4 nM | > 10000 nM | > 10000 nM | > 10000 nM | > 1 nM | 11.2 nM | > 10000 nM | > 10000 nM | 1710 nM | > 10000 nM | > 1000 nM | 287 nM | > 1000 nM | > 10000 nM | 159 nM | > 3000 nM | > 20000 nM | > 10000 nM | > 1000 nM | 522 nM | > 1000 nM | 8400 nM | > 300 nM | > 1000 nM | > 10000 nM | > 10000 nM | > 10000 nM | 20.4 nM
6 | VMRC-LCD (Lung Adenocarcinoma) | > 1000 nM | > 10000 nM | > 10000 nM | > 1000 nM | > 10000 nM | > 5000 nM | > 2000 nM | > 300 nM | > 10000 nM | > 10000 nM | 5710 nM | > 1 nM | 115 nM | > 10000 nM | 668 nM | > 10000 nM | > 10000 nM | > 1000 nM | > 3000 nM | > 1000 nM | > 10000 nM | > 300 nM | > 3000 nM | > 20000 nM | > 10000 nM | > 1000 nM | > 1000 nM | 802 nM | > 10000 nM | > 300 nM | 745 nM | > 10000 nM | > 10000 nM | > 10000 nM | 19 nM
